Measured values taken from patent publication US20080292584A1 (priority 2005, published 2008).
Several values for one entry are separate records, joined by “and”; a condition that tells them apart may be missing. Identical values can stand only once. Like-named read-outs stand apart in the source and are kept apart here.

Tests used:
CYP2C8 [1] = biological target: T1, CYP2C8 (Homo sapiens, UniProt P10632); assay: Chemical inhibition of metaxalone turnover in human liver microsomes, CYP2C8 inhibitor quercetin; conditions: 1 mg/mL HLM, 60 min, with quercetin, single replicates
T1 sequence (P10632 1-490): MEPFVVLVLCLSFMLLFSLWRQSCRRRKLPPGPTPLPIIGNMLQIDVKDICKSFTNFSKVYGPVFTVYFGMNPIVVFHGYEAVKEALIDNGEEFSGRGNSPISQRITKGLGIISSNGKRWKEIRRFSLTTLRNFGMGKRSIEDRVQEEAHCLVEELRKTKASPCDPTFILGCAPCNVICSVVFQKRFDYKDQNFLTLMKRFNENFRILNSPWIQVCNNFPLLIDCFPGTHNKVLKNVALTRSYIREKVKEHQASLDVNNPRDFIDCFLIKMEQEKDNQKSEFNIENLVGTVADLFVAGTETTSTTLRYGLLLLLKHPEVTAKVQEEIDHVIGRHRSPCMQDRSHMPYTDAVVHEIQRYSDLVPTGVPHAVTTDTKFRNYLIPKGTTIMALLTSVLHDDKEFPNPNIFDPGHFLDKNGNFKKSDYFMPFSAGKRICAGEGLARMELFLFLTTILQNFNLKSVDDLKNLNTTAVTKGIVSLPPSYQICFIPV
Protocol: (§1) Human liver microsomes pooled from 15 individuals (male and female) (Pool HMMC-PL020; CellzDirect, Inc., In Vitro Products and Services Division) were used in some experiments of this study.
(§2) % Turnover=100−{[TA(final)]/[mean of TA(0 min)]}×100,
(§3) % Inhibition of Turnover=100{1−([TA(0 min)]−[TA(final-inhibitor)])/([TA(0 min)]−[TA(final-no inhibitor)])}.
(§4) The inhibitors or vehicle control were incubated with the pooled human liver microsomes (1 mg/mL) and NADPH (1 mM) in 0.1 M phosphate buffer, pH 7.4. […] Incubations were conducted in triplicate and terminated by addition of organic solvent. Samples were extracted and analyzed by LC-MS/MS as described above.

CYP2C19 [2] = biological target: T2, CYP2C19 (Homo sapiens, UniProt P33261); assay: Metabolism of metaxalone by expressed recombinant human CYP2C19 (Example 1); conditions: for Metaxalone Present Adjusted Individual / Metaxalone Present Adjusted Mean ± SD / Metaxalone Present Raw / Percent of Metabolic Negative Control Individual / Percent of Metabolic Negative Control Mean ± SD: 36 min;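 for all read-outs here: microsomes with expressed CYP2C19 (10 pmol P450) in Tris buffer with 1% methanol, reaction started by an NADPH regenerating system after 5 min preincubation, 0.5 mL volume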
Protocol: Commercially available microsomes from baculovirus-infected insect cells containing singly-expressed recombinant wild-type (*1 allele) human CYP enzymes and cDNA-expressed human cytochrome p450 oxidoreductase [BD SUPERSOMES Enzymes; BD Biosciences Discovery Labware (Woburn, Mass.)] were used.
After a 5-minute pre-incubation, an NADPH regenerating system (NRS) was added to the incubation mixtures to initiate reactions, with a final incubation volume of 0.5 mL. Incubations were continued for 30 minutes, and then terminated, except for those for CYP2C19, which were incubated for 36 minutes prior to termination.
Matrix controls were performed to determine the background signal from the matrix components (microsomes (10 pmol p450), 01N Tris buffer, NRS, and 1% methanol). […] After a 5-minute pre-incubation, 2% sodium bicarbonate solution was added to the incubation mixtures. Incubation was for 30 minutes at a final volume of 0.5 mL. Matrix and metabolic negative controls were terminated by adding an equal volume of methanol. […] Analysis of samples was subsequent to storage at −70° C.

CYP2C19 [3] = biological target: T2, CYP2C19
Protocol: Microsomes were prepared by differential centrifugation of liver homogenates pooled from at least ten human donors.
After a 5 minute preincubation, NADPH regenerating system (NRS) was added to initiate the reaction. CYP2A6 and CYP3A4 incubations were for 10 minutes. All other incubations were for 30 minutes.
Incubations for CYP2C8 were terminated by adding 1.0 mL of ACN, while all other incubations were terminated by adding 1.0 mL of methanol.
Vehicle control experiments were performed to establish a baseline value for enzyme activity. […] Four replicates were performed.
Two replicates were performed. […] No interference was detected in any of the metabolite assay methods used.

CYP2C9 = CYP2C9 (Homo sapiens, UniProt P11712); assay: Induction/inhibition of CYP2C9 activity in cryopreserved human hepatocytes (tolbutamide)
Source text: Hepatocytes from three human donors were obtained from a cryopreserved hepatocyte bank (In Vitro Technologies, Inc., USA). After thawing, viable hepatocytes were transferred to collagen-coated 48-well plates for attachment in plating medium (DMEM stock (Dulbecco's modified Eagle's medium, supplemented with bovine serum albumin, fructose, N-(2-hydroxyethyl)piperazine-N′-(2-ethanesulfonate) (HEPES), and sodium bicarbonate), supplemented with antibiotics, bovine serum, hydrocortisone, insulin and minimum essential medium (MEM) nonessential amino acids). After attachment to the collagen matrix, plating medium was replaced with sandwich medium (plating medium supplemented with VITROGEN) and incubated until use.
The supplemented KHB was replaced with 150 μL supplemented KHB containing the appropriate isoform-selective substrate and incubated for 4 hrs prior to termination by adding 150 μL ice-cold methanol, except for the CYP2C8 incubations which were terminated by adding 150 μL acetonitrile.
All substrates were dissolved in acetonitrile.
Replicate trials and controls were performed. […] Additionally, reference control samples were included to evaluate inducibility of CYP2B6, CYP2C9, and CYP2C19 in the test system.
Mean specific activity values with associated p-values≦0.05 were deemed to be statistically significant.

CYP2E1 = CYP2E1 (Homo sapiens, UniProt P05181); assay: Chemical inhibition of metaxalone turnover in human liver microsomes, CYP2E1 inhibitor clomethiazole; conditions: 1 mg/mL HLM, 60 min, with clomethiazole; for % Turnover / % inhibition of turnover / Conc.: single replicates
Protocol: as §1, §2, §3, §4

CYP2C8 [4] = biological target: T1, CYP2C8; conditions: both, pH 7.4; for Mean Conc.: 60 min; for % Turnover Mean: microsomes, 1 h
Protocol: as §1, §2, §3, §4

CYP1A2 = biological target: T3, CYP1A2 (Homo sapiens, UniProt P05177); conditions: both, pH 7.4; for Mean Conc.: 60 min; for % Turnover Mean: microsomes, 1 h
T3 sequence (P05177 1-516): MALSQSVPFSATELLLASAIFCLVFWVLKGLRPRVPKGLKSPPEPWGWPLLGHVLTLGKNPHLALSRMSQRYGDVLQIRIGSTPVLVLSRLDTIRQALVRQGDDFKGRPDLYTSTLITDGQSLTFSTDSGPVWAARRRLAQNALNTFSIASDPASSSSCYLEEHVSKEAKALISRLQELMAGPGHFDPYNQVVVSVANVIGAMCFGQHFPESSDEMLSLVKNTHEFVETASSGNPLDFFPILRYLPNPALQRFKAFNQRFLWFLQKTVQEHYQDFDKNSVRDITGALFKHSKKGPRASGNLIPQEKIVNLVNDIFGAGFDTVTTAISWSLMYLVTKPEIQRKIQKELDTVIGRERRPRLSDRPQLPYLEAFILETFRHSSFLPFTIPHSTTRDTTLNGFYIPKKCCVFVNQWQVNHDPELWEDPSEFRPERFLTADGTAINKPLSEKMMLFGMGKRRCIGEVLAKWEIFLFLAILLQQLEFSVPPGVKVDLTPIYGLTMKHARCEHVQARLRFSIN
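Throughout, for Specific Activity Individual: CYP2C19 incubations ran for 30 minutes.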
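Throughout, for inhibition of CYP activity at a statistically significant level: CYP2C19 incubations ran for 30 minutes.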
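Throughout, for inhibitor: CYP2C19 incubations ran for 30 minutes.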
Protocol: as §1, §2, §3, §4

CYP2E1, sequence (P05181 whole entry): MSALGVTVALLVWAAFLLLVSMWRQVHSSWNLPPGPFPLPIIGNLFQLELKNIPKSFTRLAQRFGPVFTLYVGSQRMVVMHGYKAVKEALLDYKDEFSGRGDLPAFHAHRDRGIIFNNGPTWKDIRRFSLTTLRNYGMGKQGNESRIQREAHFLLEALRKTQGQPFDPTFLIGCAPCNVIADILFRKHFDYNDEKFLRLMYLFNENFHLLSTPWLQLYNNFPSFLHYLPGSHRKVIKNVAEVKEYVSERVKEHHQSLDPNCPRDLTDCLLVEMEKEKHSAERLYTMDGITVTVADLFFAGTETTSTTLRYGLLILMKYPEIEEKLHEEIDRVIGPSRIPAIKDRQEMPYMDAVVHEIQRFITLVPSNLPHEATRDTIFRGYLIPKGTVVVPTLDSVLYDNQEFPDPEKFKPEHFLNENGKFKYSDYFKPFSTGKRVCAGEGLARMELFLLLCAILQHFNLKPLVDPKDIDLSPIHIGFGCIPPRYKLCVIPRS
CYP2C9, sequence (P11712 whole entry): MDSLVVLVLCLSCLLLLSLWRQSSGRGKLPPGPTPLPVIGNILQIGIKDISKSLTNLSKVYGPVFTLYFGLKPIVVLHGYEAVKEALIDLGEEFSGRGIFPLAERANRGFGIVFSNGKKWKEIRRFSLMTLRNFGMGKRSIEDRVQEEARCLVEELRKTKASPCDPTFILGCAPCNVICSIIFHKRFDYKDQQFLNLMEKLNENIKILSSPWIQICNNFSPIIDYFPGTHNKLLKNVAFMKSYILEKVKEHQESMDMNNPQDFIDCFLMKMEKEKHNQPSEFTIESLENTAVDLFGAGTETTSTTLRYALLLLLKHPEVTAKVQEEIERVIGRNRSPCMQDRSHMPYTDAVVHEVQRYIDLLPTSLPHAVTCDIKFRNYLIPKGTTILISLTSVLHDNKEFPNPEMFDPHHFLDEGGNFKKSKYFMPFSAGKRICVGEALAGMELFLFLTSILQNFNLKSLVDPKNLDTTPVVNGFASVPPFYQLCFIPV
T2 sequence (P33261 whole entry): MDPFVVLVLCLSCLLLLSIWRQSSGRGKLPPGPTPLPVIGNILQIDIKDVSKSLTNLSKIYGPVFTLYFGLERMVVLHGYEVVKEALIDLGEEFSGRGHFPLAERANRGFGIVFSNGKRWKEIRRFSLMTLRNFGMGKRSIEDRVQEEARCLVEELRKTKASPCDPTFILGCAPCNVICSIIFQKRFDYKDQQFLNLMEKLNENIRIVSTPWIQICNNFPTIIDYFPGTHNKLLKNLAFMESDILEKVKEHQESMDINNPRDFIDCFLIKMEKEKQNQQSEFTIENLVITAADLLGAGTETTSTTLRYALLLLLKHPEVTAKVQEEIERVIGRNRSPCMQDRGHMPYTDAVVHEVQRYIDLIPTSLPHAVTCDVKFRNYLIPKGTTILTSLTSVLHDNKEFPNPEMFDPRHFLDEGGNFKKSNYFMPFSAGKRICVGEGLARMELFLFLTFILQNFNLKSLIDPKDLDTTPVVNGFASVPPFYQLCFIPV

## Cc1cc(C)cc(OCC2CNC(=O)O2)c1 (centres unmarked) [metaxalone, 5-[(3,5-dimethylphenoxy)methyl]-2-oxazolidinone]
CYP2C8 [1]; 0.75 μM metaxalone
  % Turnover: 14.3%
  Conc.: 0.661 µM
CYP2C8 [1]; 7.5 μM metaxalone
  % Turnover: −1.8%
  % inhibition of turnover: 107%
CYP2C19 [2]; 0.5 μM metaxalone
  mean disappearance of metaxalone: 6.6%
CYP2C19 [2]; metaxalone 0.5 μM
  Metaxalone Present Adjusted Individual: 0.335 µM and 0.344 µM and 0.356 µM
  Metaxalone Present Adjusted Mean ± SD: 0.345 ± 0.0104 µM
  Metaxalone Present Raw: 0.1677 µM and 0.1718 µM and 0.1781 µM
  Percent of Metabolic Negative Control Individual: 90.8% and 93.0% and 96.4%
  Percent of Metabolic Negative Control Mean ± SD: 93.4 ± 2.82%
CYP2C19 [2]; metaxalone 2.5 μM
  Metaxalone Present Adjusted Individual: 1.34 μM (2×) and 1.35 μM
  Metaxalone Present Adjusted Mean ± SD: 1.34 ± 0.00561 µM
  Metaxalone Present Raw: 0.6722 µM and 0.6725 µM and 0.6675 µM
  Percent of Metabolic Negative Control Individual: 96.7% (2×) and 96.0%
  Percent of Metabolic Negative Control Mean ± SD: 96.5 ± 0.404%
CYP2C19 [2]; metaxalone 25 μM
  Metaxalone Present Adjusted Individual: 18.7 μM (2×) and 18.5 μM
  Metaxalone Present Adjusted Mean ± SD: 18.6 ± 0.120 µM
  Metaxalone Present Raw: 9.345 µM and 9.359 µM and 9.249 µM
  Percent of Metabolic Negative Control Individual: 92.9% and 93.0% and 91.9%
  Percent of Metabolic Negative Control Mean ± SD: 92.6 ± 0.597%
CYP2C19 [3]; 0.3-100 μM metaxalone, p≦0.05
  inhibition of CYP activity at a statistically significant level: inhibited
CYP2C19 [3]; CYP isozyme 2C19, summary of studies
  Inhibitor: +
CYP2C19 [3]; metaxalone 0.3 μM
  Percent of VC: 84.6%
  Specific Activity Individual: 19.4 pmol/min/mg protein and 18.9 pmol/min/mg protein
  Specific Activity Mean ± SD: 19.0 ± 0.399 pmol/min/mg protein
CYP2C19 [3]; metaxalone 1 μM
  Percent of VC: 67.0%
  Specific Activity Individual: 14.8 pmol/min/mg protein
  Specific Activity Mean ± SD: 15.0 ± 0.186 pmol/min/mg protein
CYP2C19 [3]; metaxalone 3 μM
  Percent of VC: 67.7%
  Specific Activity Individual: 15.5 pmol/min/mg protein and 14.8 pmol/min/mg protein
  Specific Activity Mean ± SD: 15.2 ± 0.317 pmol/min/mg protein
CYP2C19 [3]; metaxalone 30 μM
  Percent of VC: 63.8%
  Specific Activity Individual: 11.1 pmol/min/mg protein and 16.5 pmol/min/mg protein and 15.3 pmol/min/mg protein
  Specific Activity Mean ± SD: 14.3 ± 2.82 pmol/min/mg protein
CYP2C19 [3]; metaxalone 100 μM
  Percent of VC: 64.9%
  Specific Activity Individual: 14.5 pmol/min/mg protein and 14.8 pmol/min/mg protein and 14.3 pmol/min/mg protein
  Specific Activity Mean ± SD: 14.5 ± 0.274 pmol/min/mg protein
CYP2C9
  Inducer/Inhibitor: −
CYP2C9; Donor 1, Metaxalone 0.4 μM
  Percent of VC: 108%
CYP2C9; Donor 1, Metaxalone 4 μM
  Percent of VC: 100%
CYP2C9; Donor 1, Metaxalone 40 μM
  Percent of VC: <73.2%
CYP2C9; Donor 2, Metaxalone 4 μM
  Percent of VC: 92.9%
CYP2C9; Donor 2, Metaxalone 40 μM
  Percent of VC: 60.4%
CYP2C9; Donor 3, Metaxalone 0.4 μM
  Percent of VC: 111%
CYP2C9; Donor 3, Metaxalone 40 μM
  Percent of VC: 78.4%
  Specific Activity Mean ± SD: 0.127 ± 0.005 pmol/min/million cells
CYP2C9; human, 48 h, 0.4 µM
  Specific Activity Mean ± SD: 0.179 ± 0.0111 pmol/min/million cells
CYP2C9; human, 48 h, 4 µM
  Specific Activity Mean ± SD: 0.167 ± 0.0210 pmol/min/million cells
CYP2C9; human, hepatocytes, 48 h, 40 μM
  effect on CYP2C9 activity: significantly reduced CYP2C9 activity
CYP2E1; 0.75 μM metaxalone
  % inhibition of turnover Mean: 113%
  Mean Conc.: 0.802 µM
  % Turnover: 5.6%
  % inhibition of turnover: 104% and 154% and 81.4%
  Conc.: 0.780 µM and 0.896 µM and 0.729 µM
CYP2E1; 7.5 μM metaxalone
  % Turnover Mean: 0.356%
  % inhibition of turnover Mean: 98.6%
  Mean Conc.: 8.48 µM
  % Turnover: 2.7%
  % inhibition of turnover: 89.2% and 101% and 105%
  Conc.: 8.29 µM and 8.54 µM and 8.63 µM
CYP2C8 [4]; 0.75 μM
  Mean Conc.: 0.719 µM
  % Turnover Mean: 6.78%
CYP2C8 [4]; 7.5 μM
  Mean Conc.: 8.19 µM
  % Turnover Mean: 3.77%
CYP1A2; 0.75 μM
  Mean Conc.: 0.797 µM
  % Turnover Mean: −3.29%
CYP1A2; 7.5 μM
  Mean Conc.: 8.11 µM
  % Turnover Mean: 4.77%
